Measurements from patent US3988453A, “Novel phenothiazines as neuroleptics” (Roussel-UCLAF, priority 1974, dated 1976).
Counter-ions that a name gives are not always drawn. Like-named read-outs stand apart in the source and are kept apart here.

Legend:
[1] = system: stereotypes provoked by apomorphine; assay: antagonism to stereotypes provoked by apomorphine; format: in vivo, male rats; details: rat, oral, read-out: ED50 (DE50), apomorphine sterotypes
Protocol: A. antagonism to stereotypes provoked by apomorphine
This test was conducted on groups of 5 male rats in individual cages with the procedure of Janssen et al [Arzn. Forsch., Vol. 15 (1965), p. 104-117 and Vol. 17 (1967), p. 841-854]. Each rat orally received the test compound and then, at variable times, an intraveinous injection of 1.5 mg of apomorphine hydrochloride in the veins of the penis. The times of injection were 1 hour, 24 hours, 2 days, 3 days or 4 days after the test product administration and the rats were studied during 1 minute after 5,10 and 15 minutes after the injection and the stereotype movements of the jaws spheres were evaluated for their degree of intensity on a scale for 0 to 3 /Boissier et al, Therapie, Vol. 25 (1970), p. 939-949/. The ED50 was determined at the maximum of the effect for the time considered that is to say the dose reducing the symptoms by 50% in the treated animals as compared to control animals and the results are reported in Table I.

[2] = system: histamine hydrochloride lethality; assay: antihistaminic activity (protection against lethal histamine dose); format: in vivo, guinea pigs; details: guinea pig, oral 10 mg/kg
Protocol: E. antihistaminic Activity
This test was effected on guinea pigs which received orally a single dose of 10 mg/kg of the test product and then a intraveinous injection of 0.8 mg/kg of histamine hydrochloride 1 hour or 24 hours thereafter. This histamine dose is the minimum lethal dose for 100% of the animals within about 3 minutes and after 10 minutes, any surviving animals were considered to be protected. Each product was rated to see if 50% of the animals were alive at this dose and the values of Table IV show at least 50% protected by + and less than 50% protected by 0.

[3] = system: toxicity provoked by amphetamine; assay: antagonism to toxicity provoked by amphetamine; format: in vivo, male mice; details: mouse, oral, read-out: ED50 (DE50), amphetaminic toxicity
Protocol: B. antagonism to toxicity provoked by amphetamine
This test was effect on groups of 10 male mice grouped in crystallizers with a 20 cm diameter and a 9 cm height closed with a grilled lid. Each mouse orally received a determined dose of the test product and at different times a single intraperitoneal dose of dexamphetamine sulfate. The injection was effected 1 hour, 24 hours or 2,3,4 or 7 days after the administration of the test compound and the mortality for each group was determined 24 hours after the injection. The ED50, the dose at which the toxicity of dexamphetamine sulphate was reduced by 50%, was determined and the results are reported in Table I.

acute toxicity = details: mouse, in vivo, Swiss mice, mortality at 72 hours
Protocol: The acute toxicity of the product of Example 2 was determined on groups of 10 mice of the Swiss strain weighing about 20 g receiving increasing doses orally or intraperitoneally of the test product. The mortality was determined 72 hours after the product administration.

[4] = system: vomitting provoked by apomorphine; assay: antagonism against vomitting provoked by apomorphine; format: in vivo, dogs; details: dog
Protocol: D. antagonism against vomitting provoked by apomorphine
This test was effected on 3 dogs on whom the number of vomits provoked by a single subcutaneous injection of 0.1 mg/kg of apomorphine hydrochloride 8 days before this test. Each dog received subcutaneously an injection of an aqueous suspension of 0.3 mg/kg or 0.8 mg/kg of the product of Example 2 and an injection of 0.1 mg/kg of apomorphine hydrochloride 30 minutes, 7 days, 14 days, 21 days, 28 days, 35 days and 42 days thereafter.

[5] = system: stereotypes provoked by amphetamine; assay: antagonism to stereotypes provoked by amphetamine; format: in vivo, rats; details: for % protection: rat
Protocol: C. antagonism to stereotypes provoked by amphetamine
This test with the product of Example 2 was effected on groups of 5 rats with the rats individually held in cages and after the rats received intraperitoneally or subcutaneously an aqueous suspension of the product at a dose of 10 mg/kg, each rat received intraperitoneally at different times a single injection of 8 mg/kg of dexamphetamine sulfate. The second injections were made 1 hour or 1,3 or 7 days after the first injection and the results were determined by the procedure of Halliwel et al [Brit. J. Pharmacol., Vol. 23 (1964), p. 330-350].

[6] = apomorphine 1 h after test product
[7] = apomorphine 24 h after test product
[8] = dexamphetamine 1 h after test product
[9] = dexamphetamine 24 h after test product
[10] = 48 h, apomorphine 2 d after test product
[11] = 72 h, apomorphine 3 d after test product
[12] = 96 h, apomorphine 4 d after test product
[13] = 48 h, dexamphetamine 2 d after test product
[14] = 72 h, dexamphetamine 3 d after test product
[15] = 96 h, dexamphetamine 4 d after test product
[16] = 168 h, dexamphetamine 7 d after test product

c1ccc2c(c1)Sc1ccccc1N2CCCN1CCC(c2c[nH]c3ccccc23)CC1 [Example 1, 4-(3'-indolyl)-1-[γ-(10"-phenothiazinyl)-propyl]-piperidine.HCl]
ED50 [1, 6]: > 50 mg/kg
ED50 [1, 7]: 35 mg/kg
Protection against histamine ([2]; after 1 hour): 0 (less than 50% protected)
Protection against histamine ([2]; after 24 hours): + (at least 50% protected)
ED50 [3, 8]: < 10 mg/kg
ED50 [3, 9]: < 10 mg/kg

FC(F)(F)c1ccc2c(c1)N(CCCN1CCC(c3c[nH]c4ccccc34)CC1)c1ccccc1S2 [Example 2, 4-(3'-indolyl)-1-[γ-(2"-trifluoromethyl-10"-phenothiazinyl)-propyl]-piperidine hydrochloride]
LD50 at 72 h (acute toxicity; ip, intraperitoneal): ~300 mg/kg
LD50 at 72 h (acute toxicity; oral): > 1600 mg/kg
ED50 [1, 10]: 18 mg/kg
ED50 [1, 11]: 17 mg/kg
ED50 [1, 12]: 33 mg/kg
ED50 [1, 6]: > 50 mg/kg
ED50 [1, 7]: < 10 mg/kg
Protection against histamine ([2]; after 1 hour): + (at least 50% protected)
Protection against histamine ([2]; after 24 hours): 0 (less than 50% protected)
ED50 [3, 13]: < 10 mg/kg
ED50 [3, 14]: 50 mg/kg
ED50 [3, 8]: < 10 mg/kg
ED50 [3, 9]: < 10 mg/kg
neuroleptic activity (Table III, in words) ([4]; subcutaneous): important prolonged neuroleptic activity
% of protection ([4]; subcutaneous 0.3 mg/kg, after 30 min): 24%
% of protection ([4]; subcutaneous 0.3 mg/kg, after 7 d): 86%
% of protection ([4]; subcutaneous 0.3 mg/kg, after 14 d): 57%
% of protection ([4]; subcutaneous 0.3 mg/kg, after 21 d): 29%
% of protection ([4]; subcutaneous 0.3 mg/kg, after 28 d): 10%
% of protection ([4]; subcutaneous 0.8 mg/kg, after 30 min): 0%
% of protection ([4]; subcutaneous 0.8 mg/kg, after 7 d): 100%
% of protection ([4]; subcutaneous 0.8 mg/kg, after 14 d): 95%
% of protection ([4]; subcutaneous 0.8 mg/kg, after 21 d): 84%
% of protection ([4]; subcutaneous 0.8 mg/kg, after 28 d): 79%
% of protection ([4]; subcutaneous 0.8 mg/kg, after 35 d): 42%
% of protection ([4]; subcutaneous 0.8 mg/kg, after 42 d): 21%
antagonistic effect against the stereotypes provoked by amphetamine (in words) ([5]; injected intraperitoneally or subcutaneously): important antagonistic effect of prolonged duration
% protection ([5]; intraperitoneal 10 mg/kg, after 1 hour): 39%
% protection ([5]; intraperitoneal 10 mg/kg, after 1 day): 77%
% protection ([5]; intraperitoneal 10 mg/kg, after 3 days): 68%
% protection ([5]; intraperitoneal 10 mg/kg, after 7 days): 61%
% protection ([5]; subcutaneous 10 mg/kg, after 1 hour): 17%
% protection ([5]; subcutaneous 10 mg/kg, after 1 day): 84%
% protection ([5]; subcutaneous 10 mg/kg, after 3 days): 60%
% protection ([5]; subcutaneous 10 mg/kg, after 7 days): 14%

COc1ccc2[nH]cc(C3CCN(CCCN4c5ccccc5Sc5ccc(C(F)(F)F)cc54)CC3)c2c1 [Example 3, 4-(5'-methoxy-3'-indolyl)-1-[γ-(2"-trifluoromethyl-10"-phenothiazinyl)-propyl]-piperidine hydrochloride]
ED50 [1, 10]: < 10 mg/kg
ED50 [1, 11]: 12 mg/kg
ED50 [1, 12]: 20 mg/kg
ED50 [1, 6]: > 50 mg/kg
ED50 [1, 7]: < 10 mg/kg
ED50 [3, 13]: < 10 mg/kg
ED50 [3, 14]: < 10 mg/kg
ED50 [3, 15]: < 10 mg/kg
ED50 [3, 8]: < 10 mg/kg
ED50 [3, 9]: < 10 mg/kg

COc1ccc2c(C3CCN(CCCN4c5ccccc5Sc5ccc(C(F)(F)F)cc54)CC3)c(C)[nH]c2c1 [Example 4, 4-(2'-methyl-6'-methoxy-3'-indolyl)-1-[γ-(2"-trifluoromethyl-10"-phenothiazinyl)-propyl]-piperidine hydrochloride]
ED50 [1, 10]: 9 mg/kg
ED50 [1, 11]: 16 mg/kg
ED50 [1, 12]: 25 mg/kg
ED50 [1, 6]: > 50 mg/kg
ED50 [1, 7]: 9 mg/kg
ED50 [3, 13]: < 10 mg/kg
ED50 [3, 14]: 9 mg/kg
ED50 [3, 15]: 9 mg/kg
ED50 [3, 16]: 50 mg/kg
ED50 [3, 8]: 10 mg/kg
ED50 [3, 9]: < 10 mg/kg

Clc1ccc2c(c1)N(CCCN1CCC(c3c[nH]c4ccccc34)CC1)c1ccccc1S2 [Example 5, 4-(3'-indolyl)-1'-[γ-(2"-chloro-10"-phenothiazinyl)-propyl]-piperidine hydrochloride]
ED50 [1, 10]: 12 mg/kg
ED50 [1, 11]: 27 mg/kg
ED50 [1, 6]: > 50 mg/kg
ED50 [1, 7]: < 10 mg/kg
Protection against histamine ([2]; after 1 hour): + (at least 50% protected)
Protection against histamine ([2]; after 24 hours): + (at least 50% protected)
ED50 [3, 13]: < 10 mg/kg
ED50 [3, 14]: 10 mg/kg
ED50 [3, 15]: 17 mg/kg
ED50 [3, 8]: 16 mg/kg
ED50 [3, 9]: < 10 mg/kg

COc1ccc2c(c1)N(CCCN1CCC(c3c[nH]c4ccccc34)CC1)c1ccccc1S2 [Example 6, 4-(3'-indolyl)-1-[γ-(2"-methoxy-10"-phenothiazinyl)-propyl]-piperidine hydrochloride]
ED50 [1, 10]: 45 mg/kg
ED50 [1, 6]: > 50 mg/kg
ED50 [1, 7]: < 10 mg/kg
Protection against histamine ([2]; after 1 hour): 0 (less than 50% protected)
Protection against histamine ([2]; after 24 hours): + (at least 50% protected)
ED50 [3, 13]: 10 mg/kg
ED50 [3, 8]: < 10 mg/kg
ED50 [3, 9]: < 10 mg/kg

CC(CN1CCC(c2c[nH]c3ccccc23)CC1)CN1c2ccccc2Sc2ccc(C(F)(F)F)cc21 (stereo not drawn) [Example 7, 4-(3'-indolyl)-1-[β-methyl-γ-(2"-trifluoromethyl-10"-phenothiazinyl)-propyl]-piperidine hydrochloride]
ED50 [1, 10]: 10 mg/kg
ED50 [1, 11]: < 10 mg/kg
ED50 [1, 12]: 12 mg/kg
ED50 [1, 6]: > 20 mg/kg
ED50 [1, 7]: 10 mg/kg
Protection against histamine ([2]; after 1 hour): 0 (less than 50% protected)
Protection against histamine ([2]; after 24 hours): + (at least 50% protected)
ED50 [3, 13]: < 10 mg/kg
ED50 [3, 14]: 13 mg/kg
ED50 [3, 15]: < 10 mg/kg
ED50 [3, 16]: 19 mg/kg
ED50 [3, 8]: > 20 mg/kg
ED50 [3, 9]: < 10 mg/kg

COc1ccc2c(c1)N(CC(C)CN1CCC(c3c[nH]c4ccccc34)CC1)c1ccccc1S2 (stereo not drawn) [Example 8, 4-(3'-indolyl)-1-[γ-(2"-methoxy-10"-phenothiazinyl)-β-methylpropyl]-piperidine hydrochloride]
ED50 [1, 10]: 12 mg/kg
ED50 [1, 11]: 30 mg/kg
ED50 [1, 6]: > 50 mg/kg
ED50 [1, 7]: < 10 mg/kg
Protection against histamine ([2]; after 1 hour): 0 (less than 50% protected)
Protection against histamine ([2]; after 24 hours): + (at least 50% protected)
ED50 [3, 13]: < 10 mg/kg
ED50 [3, 14]: 18 mg/kg
ED50 [3, 8]: < 10 mg/kg
ED50 [3, 9]: < 10 mg/kg
